According to patent US20250195536A1, “BICYCLOOCTANE KRAS INHIBITORS” (Incyte Corporation, priority 2023, published 2025):

Tests used:
[1] = molecular target: KRAS G12V (Homo sapiens, UniProt P01116, G12V); assay: GDP-GTP exchange assay (KRAS G12V); type: biochemical; settings: bodipy-GDP/GppNHp exchange with SOS1; 3 h incubation after GppNHp-SOS1;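 also: one dagger IC50 up to 100 nM and two daggers above 100 nM up to 1 μM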
Summary of the method: (§1)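 IC50 came from a four-parameter fit of fluorescence loss (485/520 nm) as SOS1 (150 nM) swapped bodipy-GDP for GppNHp (500 μM) on 2.5 nM KRAS, final concentrations. Compounds were pre-incubated 4 h at r.t. (pH 7.5 Hepes, 10 mM MgCl2); exchange ran 2 h (G12D) or 3 h (G12V).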

[2] = molecular target: KRAS G12D (Homo sapiens, UniProt P01116, G12D); assay: GDP-GTP exchange assay (KRAS G12D); type: biochemical; settings: bodipy-GDP/GppNHp exchange with SOS1; 4 h pre-incubation, 2 h reaction;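 also: one dagger IC50 up to 100 nM and two daggers above 100 nM up to 1 μM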
Summary of the method: as §1

[3] = Caco2 assay (permeability, Papp A-B); type: in vitro ADME; settings: human, Caco-2, absorptive direction (A-B), 50 μM test compound, 4% BSA in receiver
Summary of the method: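 Absorptive (A-B) Papp: 50 μM test compound in HBSS added to apical side of 22-25-day Caco-2 monolayers (TEER 300 Ω·cm^2), receiver buffer containing 4% BSA. After 120 min at 37 °C, 5% CO2, both sides analysed by LCMS; Papp calculated from flux rate normalized to area and donor amount.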

Chain of KRAS G12V (P01116 1-188 isoform P01116-2 G12V): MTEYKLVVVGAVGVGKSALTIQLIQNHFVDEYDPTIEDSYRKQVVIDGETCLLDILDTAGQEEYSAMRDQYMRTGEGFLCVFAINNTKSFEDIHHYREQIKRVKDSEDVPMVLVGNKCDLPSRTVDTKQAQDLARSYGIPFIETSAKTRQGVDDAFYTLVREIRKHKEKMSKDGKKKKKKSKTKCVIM
Chain of KRAS G12D (P01116 1-188 isoform P01116-2 G12D): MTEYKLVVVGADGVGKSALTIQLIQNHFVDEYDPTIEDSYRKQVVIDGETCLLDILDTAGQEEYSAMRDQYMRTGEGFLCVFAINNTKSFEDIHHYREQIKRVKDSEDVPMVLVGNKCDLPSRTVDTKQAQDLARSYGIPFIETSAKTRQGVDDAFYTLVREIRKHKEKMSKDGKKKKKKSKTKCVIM

| SMILES | G12V_exchange (KRAS_G12V exchange assay IC50) [1] | G12D_exchange (KRAS_G12D exchange assay IC50) [2] | Papp A→B at 120 min, 50 μM [3] [×10⁻⁶ cm/s] |
| --- | --- | --- | --- |
| Cc1nc2c(F)c(-c3cccc(Cl)c3Cl)c(CCC#N)cc2c2c1cc([C@H]1[C@H]3C[C@H](CN(c4ncccc4F)C3)N1C(=O)C1CC1)n2[C@H]1[C@H]2CN[C@@H]1C2 (atropisomer, axis not shown; (Ra)) [Example 46, 3-((Ra)-1-((1R,4R,5S)-2-azabicyclo[2.1.1]hexan-5-yl)-2-((1S,5R,7R)-6-(cyclopropanecarbonyl)-3-(3-fluoropyridin-2-yl)-3,6-diazabicyclo[3.2.1]octan-7-yl)-7-(2,3-dichlorophenyl)-6-fluoro-4-methyl-1H-pyrrolo[3,2-c]quinolin-8-yl)propanenitrile] | † | † | ≤ 0.5 |
| Cc1nc2c(F)c(-c3cccc(Cl)c3Cl)c(CCC#N)cc2c2c1cc([C@H]1[C@H]3C[C@H](CN(c4cnc(C(F)(F)F)cn4)C3)N1C(=O)C1CC1)n2[C@H]1[C@H]2CN[C@@H]1C2 (atropisomer, axis not shown; (Ra)) [Example 44, 3-((Ra)-1-((1R,4R,5S)-2-azabicyclo[2.1.1]hexan-5-yl)-2-((1S,5R,7R)-6-(cyclopropanecarbonyl)-3-(5-(trifluoromethyl)pyrazin-2-yl)-3,6-diazabicyclo[3.2.1]octan-7-yl)-7-(2,3-dichlorophenyl)-6-fluoro-4-methyl-1H-pyrrolo[3,2-c]quinolin-8-yl)propanenitrile] | † | † | ≤ 0.5 |
| Cc1nc2c(F)c(-c3cccc(Cl)c3Cl)c(CCC#N)cc2c2c1cc([C@H]1[C@H]3C[C@H](CN(c4cccc(F)c4)C3)N1C(=O)C1CC1)n2[C@H]1[C@H]2CN[C@@H]1C2 (atropisomer, axis not shown; (Ra)) [Example 13, 3-((Ra)-1-((1R,4R,5S)-2-azabicyclo[2.1.1]hexan-5-yl)-2-((1S,5R,7R)-6-(cyclopropanecarbonyl)-3-(3-fluorophenyl)-3,6-diazabicyclo[3.2.1]octan-7-yl)-7-(2,3-dichlorophenyl)-6-fluoro-4-methyl-1H-pyrrolo[3,2-c]quinolin-8-yl)propanenitrile] | † | † | ≤ 0.5 |
| Cc1nc2c(F)c(-c3cccc(Cl)c3Cl)c(CCC#N)cc2c2c1cc([C@H]1[C@H]3C[C@H](CN(C(=O)C4CC4)C3)N1C(=O)C1CC1)n2[C@H]1[C@H]2CN[C@@H]1C2 (atropisomer, axis not shown; (Ra)) [Example 107, 3-((Ra)-1-((1R,4R,5S)-2-Azabicyclo[2.1.1]hexan-5-yl)-2-((1 S,5R,7R)-3,6-di(cyclopropanecarbonyl)-3,6-diazabicyclo[3.2.1]octan-7-yl)-7-(2,3-dichlorophenyl)-6-fluoro-4-methyl-1H-pyrrolo[3,2-c]quinolin-8-yl)propanenitrile] | † | † | ≤ 0.5 |
| Cc1ccc(N2C[C@@H]3C[C@H](C2)N(C(=O)C2CC2)[C@H]3c2cc3c(C)nc4c(F)c(-c5cccc(Cl)c5Cl)c(CCC#N)cc4c3n2[C@H]2[C@H]3CN[C@@H]2C3)cn1 (atropisomer, axis not shown; (Ra)) [Example 14, 3-((Ra)-1-((1R,4R,5S)-2-azabicyclo[2.1.1]hexan-5-yl)-2-((1S,5R,7R)-6-(cyclopropanecarbonyl)-3-(6-methylpyridin-3-yl)-3,6-diazabicyclo[3.2.1]octan-7-yl)-7-(2,3-dichlorophenyl)-6-fluoro-4-methyl-1H-pyrrolo[3,2-c]quinolin-8-yl)propanenitrile] | † | † | ≤ 0.5 |
| Cc1nc2c(F)c(-c3cccc(Cl)c3Cl)c(CCC#N)cc2c2c1cc([C@H]1CCN(c3ccccc3)CCN1C(=O)C1CC1)n2[C@H]1[C@H]2CN[C@@H]1C2 (atropisomer, axis not shown; (Ra)) [Example 117, 3-((Ra)-1-((1R,4R,5S)-2-Azabicyclo[2.1.1]hexan-5-yl)-2-((R)-4-(cyclopropanecarbonyl)-1-phenyl-1,4-diazepan-5-yl)-7-(2,3-dichlorophenyl)-6-fluoro-4-methyl-1H-pyrrolo[3,2-c]quinolin-8-yl)propanenitrile] | † | † | > 1 |
| CCc1cnc(N2C[C@@H]3C[C@H](C2)N(C(=O)C2CC2)[C@H]3c2cc3c(C)nc4c(F)c(-c5cccc(Cl)c5Cl)c(CCC#N)cc4c3n2[C@H]2[C@H]3CN[C@@H]2C3)s1 (atropisomer, axis not shown; (Ra)) [Example 99, 3-((Ra)-1-((1R,4R,5S)-2-azabicyclo[2.1.1]hexan-5-yl)-2-((1S,5R,7R)-6-(cyclopropanecarbonyl)-3-(5-ethylthiazol-2-yl)-3,6-diazabicyclo[3.2.1]octan-7-yl)-7-(2,3-dichlorophenyl)-6-fluoro-4-methyl-1H-pyrrolo[3,2-c]quinolin-8-yl)propanenitrile] | † | † | ≤ 0.5 |
| Cc1nc2c(F)c(-c3cccc(Cl)c3Cl)c(CCC#N)cc2c2c1cc([C@H]1[C@H]3C[C@H](CN(c4ccc(OC(F)(F)F)cc4)C3)N1C(=O)C1CC1)n2[C@H]1[C@H]2CN[C@@H]1C2 (atropisomer, axis not shown; (Ra)) [Example 3, 3-((Ra)-1-((1R,4R,5S)-2-azabicyclo[2.1.1]hexan-5-yl)-2-((1S,5R,7R)-6-(cyclopropanecarbonyl)-3-(4-(trifluoromethoxy)phenyl)-3,6-diazabicyclo[3.2.1]octan-7-yl)-7-(2,3-dichlorophenyl)-6-fluoro-4-methyl-1H-pyrrolo[3,2-c]quinolin-8-yl)propanenitrile] | † | †† | ≤ 0.5 |
| Cc1nc2c(F)c(-c3cccc(Cl)c3Cl)c(CCC#N)cc2c2c1cc([C@H]1[C@H]3C[C@H](CN(S(=O)(=O)N4CCOCC4)C3)N1C(=O)C1CC1)n2[C@H]1[C@H]2CN[C@@H]1C2 (atropisomer, axis not shown; (Ra)) [Example 111, 3-((Ra)-1-((1R,4R,5S)-2-Azabicyclo[2.1.1]hexan-5-yl)-2-((1 S,5R,7R)-6-(cyclopropanecarbonyl)-3-(morpholinosulfonyl)-3,6-diazabicyclo[3.2.1]octan-7-yl)-7-(2,3-dichlorophenyl)-6-fluoro-4-methyl-1H-pyrrolo[3,2-c]quinolin-8-yl)propanenitrile] | † | †† | ≤ 0.5 |
| Cc1nc2c(F)c(-c3cccc(Cl)c3Cl)c(CCC#N)cc2c2c1cc([C@H]1[C@H]3C[C@H](CN(c4nccc(C(F)F)n4)C3)N1C(=O)C1CC1)n2[C@H]1[C@H]2CN[C@@H]1C2 (atropisomer, axis not shown; (Ra)) [Example 87, 3-((Ra)-1-((1R,4R,5S)-2-azabicyclo[2.1.1]hexan-5-yl)-2-((1S,5R,7R)-6-(cyclopropanecarbonyl)-3-(4-(difluoromethyl)pyrimidin-2-yl)-3,6-diazabicyclo[3.2.1]octan-7-yl)-7-(2,3-dichlorophenyl)-6-fluoro-4-methyl-1H-pyrrolo[3,2-c]quinolin-8-yl)propanenitrile] | † | † | ≤ 0.5 |
| Cc1nc2c(F)c(-c3cccc(Cl)c3Cl)c(CCC#N)cc2c2c1cc([C@H]1[C@H]3C[C@H](CN(c4cc(C(F)F)c(F)cn4)C3)N1C(=O)C1CC1)n2[C@H]1[C@H]2CN[C@@H]1C2 (atropisomer, axis not shown; (Ra)) [Example 85, 3-((Ra)-1-((1R,4R,5S)-2-azabicyclo[2.1.1]hexan-5-yl)-2-((1S,5R,7R)-6-(cyclopropanecarbonyl)-3-(4-(difluoromethyl)-5-fluoropyridin-2-yl)-3,6-diazabicyclo[3.2.1]octan-7-yl)-7-(2,3-dichlorophenyl)-6-fluoro-4-methyl-1H-pyrrolo[3,2-c]quinolin-8-yl)propanenitrile] | † | † | ≤ 0.5 |
| Cc1nc2c(F)c(-c3cccc(Cl)c3Cl)c(CCC#N)cc2c2c1cc([C@H]1[C@H]3C[C@H](CN(c4ccccc4F)C3)N1C(=O)C1CC1)n2[C@H]1[C@H]2CN[C@@H]1C2 (atropisomer, axis not shown; (Ra)) [Example 2, 3-((Ra)-1-((1R,4R,5S)-2-Azabicyclo[2.1.1]hexan-5-yl)-2-((1 S,5R,7R)-6-(cyclopropanecarbonyl)-3-(2-fluorophenyl)-3,6-diazabicyclo[3.2.1]octan-7-yl)-7-(2,3-dichlorophenyl)-6-fluoro-4-methyl-1H-pyrrolo[3,2-c]quinolin-8-yl)propanenitrile] | † | † | ≤ 0.5 |
